Laboratory results from patent US8318947B2, “Comestible compositions comprising high potency savory flavorants, and processes for producing them” (Senomyx, Inc., priority 2006, dated 2012).

Legend:
[1] = tested on: human panelists, savory taste; experiment: Savory taste test with trained human panel (difference from reference); format: in vivo; conditions: for Taste Data: cpd concentration at which 12 mM MSG + cpd is as strong as 12 mM MSG + 100 μM IMP: with 12 mM MSG, reference 12 mM MSG + 100 μM IMP
Protocol: General Panelist Selection: Basic screening of sensory taste testers: Potential panelists were tested for their abilities to rank and rate intensities of solutions representing the five basic tastes. Panelists ranked and rated intensity of five different concentrations of each of the five following compounds: sucrose (sweet), sodium chloride (salty), citric acid (sour), caffeine (bitter), and monosodium glutamate (savory). In order to be selected for participation in testing, panelists needed to correctly rank and rate samples for intensity, with a reasonable number of errors.
Preliminary Taste Tests: The panelists selected in the above procedure were deemed qualified for performing Preliminary Taste Testing procedures. The preliminary taste tests are used to evaluate new compounds for intensity of basic tastes and off-tastes. A small group of panelists (n=5) taste approximately 5 concentrations of the compound (range typically between 1-100 μM, in half-log cycles, e.g., 1, 3, 10, 30, and 100 μM) in water and in a solution of 12 mM MSG to evaluate enhancement. Panelists rate the five basic tastes (sweet, salty, sour, bitter, and savory) as well as off-tastes (such as chemical, metallic, sulfur) on a labeled magnitude scale. Samples are served in 10 mL portions at room temperature. The purpose of the test is to determine the highest concentration at which there is no objectionable off-taste, and determine if obvious savory taste or enhancement of savory taste exists at any of the concentrations tested.
Trained Panelist Selection: A trained expert panel was used to further evaluate compounds that had been tested with the preliminary taste test.
Panelists for the trained panel were selected from the larger group of qualifying taste panelists. Panelists were further trained on savory taste by ranking and rating experiments using MSG and IMP combinations. Panelists completed a series of ranking, rating, and difference from reference tests with savory solutions. In ranking and rating experiments, panelists evaluated easy MSG concentrations (0, 6, 18, 36 mM) and more difficult MSG concentrations (3, 6, 12, 18 mM MSG) in water.
Compound testing with Trained Panel: Compounds tested by the trained panel were evaluated in difference from reference experiments. […] Test samples were solutions with varying amounts of MSG, IMP, and the compound. Typically, each session compares the reference sample to numerous test samples. […] Compounds were tested against the reference in samples with and without 12 mM MSG. All samples were presented in 10 ml volumes at room temperature. Two sessions were completed for each compound tested to evaluate panel reproducibility.

[2] = tested on: external tasters; experiment: Cajun BBQ potato chips focus group taste test; format: in vivo, human; conditions: chips with 3 ppm compound; eleven panelists
Protocol: Two solid savory flavor concentrate compositions were prepared by spray drying procedures equivalent to those reported in Example 35. One savory flavor concentrate sample, comprising 0.01% (wt/wt) of the compound of Example 1 was prepared via from the compound of Example 1, Neobee M-5 medium chain triglycerides, N-Lok 1930 modified food starch, and maltodextrin. Another savory flavor concentrate sample, comprising 0.01% (wt/wt) of the compound of Example 24 was similarly prepared via from the compound of Example 24, Neobee M-5 medium chain triglycerides, N-Lok 1930 modified food starch, and maltodextrin. A basic dry seasoning mix for providing Cajun flavor for the chips was prepared by dry blending the ingredients in Table 38-1 using a […] blender for 5 minutes at 40-80 rpms using a wire whip attachment. Kettle® Unsalted potato chips were hand broken into reasonably uniform 1⁄2''×1⁄2'' pieces and placed in a polyethylene 26.7 cm×27.9 cm non-vented food bag. The chips were then heated in an Amana Commercial 1200 watt microwave for 20 seconds to release oils, and so the seasoning would adhere to the chips. […] The panelists evaluated the four sample types of Cajun BBQ chips in a Focus Group taste test procedure and were instructed to write comments on several attributes: sweet, BBQ, Cajun spice, pepper, onion, salt, potato, umami, off tastes, other, and liking or disliking. […]

Row | Compound | Taste Data: cpd concentration at which 12 mM MSG + cpd is as strong as 12 mM MSG + 100 μM IMP [1] | Panelists reporting higher intensity of Cajun spice and pepper flavors [2] | Taste Data: cpd concentration as strong as 12 mM MSG ([1]; compound alone, without MSG)
1 | CCCC(CCC)NC(=O)c1ccc2c(c1)OCO2 [Example 1, N-(heptan-4-yl)benzo[d][1,3]dioxole-5-carboxamide] | 12 mM MSG + 3 μM cpd as | 9/11 | –
2 | COc1ccc(CNC(=O)C(=O)NCCc2ccccn2)c(OC)c1 [Example 24, N-(2,4-Dimethoxy-benzyl)-N′-(2-pyridin-2-yl-ethyl)-oxalamide] | 12 mM MSG + 1 μM cpd as | 9/11 | 1 μM cpd as strong as
